The target in data set [1] is T1, COX-1 (Ovis aries, UniProt P05979).
T1 construct: Purified COX-1 from ram seminal vesicles; purchased Cayman Chemicals; host or cells: ram seminal vesicles (tissue-purified)
T1 sequence (P05979 25-600): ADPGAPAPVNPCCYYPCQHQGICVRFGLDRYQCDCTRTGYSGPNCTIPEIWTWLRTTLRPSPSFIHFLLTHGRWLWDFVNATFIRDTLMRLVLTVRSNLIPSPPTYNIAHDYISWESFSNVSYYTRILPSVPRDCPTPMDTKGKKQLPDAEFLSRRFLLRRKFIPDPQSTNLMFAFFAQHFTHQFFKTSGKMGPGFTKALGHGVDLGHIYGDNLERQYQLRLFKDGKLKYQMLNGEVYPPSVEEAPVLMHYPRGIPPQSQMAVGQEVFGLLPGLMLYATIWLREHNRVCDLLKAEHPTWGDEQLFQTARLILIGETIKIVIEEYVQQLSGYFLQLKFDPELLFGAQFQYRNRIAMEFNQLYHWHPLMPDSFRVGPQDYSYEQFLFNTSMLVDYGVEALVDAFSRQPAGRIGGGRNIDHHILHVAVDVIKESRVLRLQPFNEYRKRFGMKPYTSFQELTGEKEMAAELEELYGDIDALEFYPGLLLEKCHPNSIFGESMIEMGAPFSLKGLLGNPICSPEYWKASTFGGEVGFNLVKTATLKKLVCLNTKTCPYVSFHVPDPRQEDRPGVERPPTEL
The data set is described as follows: Inhibition of purified COX-1 activity in vitro (PGE2 by enzymo-immunoassay). Type of data set: biochemical, ram. Conditions: for % COX-1 inhibition: negative sign = inhibition. On the procedure:
(§1) Example compounds according to the invention were tested for their ability to inhibit COX-1 and/or COX-2 activities in vitro. Purified COX-1 from ram seminal vesicles and purified COX-2 from ewe placenta (both from Cayman Chemicals) were incubated for 10 minutes at 25° C. in the presence of their substrate, arachidonic acid (5 μM), with or without test compounds or standard inhibitors. Prostaglandin E2, the reaction product, was measured by enzymo-immunoassay (R&D Systems). Each individual value results from duplicate determinations. Final inhibition data are means±standard errors of at least (3) independent experiments performed on as many different days.

The target of data set [2] is T2, COX-2 (Ovis aries, UniProt P79208).
T2 construct: purified COX-2 from ewe placenta; purchased Cayman Chemicals; host or cells: ewe placenta (tissue-purified)
T2 sequence (P79208 17-603): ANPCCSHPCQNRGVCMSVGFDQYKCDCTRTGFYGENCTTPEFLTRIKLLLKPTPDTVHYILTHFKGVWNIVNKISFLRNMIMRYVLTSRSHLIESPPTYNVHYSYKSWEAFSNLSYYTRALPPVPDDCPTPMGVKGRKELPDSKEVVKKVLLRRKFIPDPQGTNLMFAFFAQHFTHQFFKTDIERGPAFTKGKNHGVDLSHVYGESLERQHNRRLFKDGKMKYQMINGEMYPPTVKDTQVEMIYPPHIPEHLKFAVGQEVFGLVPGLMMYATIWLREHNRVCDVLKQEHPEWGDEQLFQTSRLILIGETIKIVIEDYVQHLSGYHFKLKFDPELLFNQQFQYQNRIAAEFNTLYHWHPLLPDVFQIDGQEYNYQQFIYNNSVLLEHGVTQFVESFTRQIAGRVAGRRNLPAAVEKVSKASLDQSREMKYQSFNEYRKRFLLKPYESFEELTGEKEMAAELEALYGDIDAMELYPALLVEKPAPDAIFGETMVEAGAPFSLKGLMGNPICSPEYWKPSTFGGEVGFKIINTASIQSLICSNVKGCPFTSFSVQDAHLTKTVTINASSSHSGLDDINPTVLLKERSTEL
The experiment in a line: Inhibition of purified COX-2 activity in vitro (PGE2 by enzymo-immunoassay). The format is biochemical, ewe. Conditions: for COX-2 inhibitory potency compared with nimesulide (in words): same concentration, 1 μM. On the procedure:
as §1

The target of data set [3] is T3, Cox-2 (Homo sapiens, UniProt P35354).
T3 sequence (P35354 18-604): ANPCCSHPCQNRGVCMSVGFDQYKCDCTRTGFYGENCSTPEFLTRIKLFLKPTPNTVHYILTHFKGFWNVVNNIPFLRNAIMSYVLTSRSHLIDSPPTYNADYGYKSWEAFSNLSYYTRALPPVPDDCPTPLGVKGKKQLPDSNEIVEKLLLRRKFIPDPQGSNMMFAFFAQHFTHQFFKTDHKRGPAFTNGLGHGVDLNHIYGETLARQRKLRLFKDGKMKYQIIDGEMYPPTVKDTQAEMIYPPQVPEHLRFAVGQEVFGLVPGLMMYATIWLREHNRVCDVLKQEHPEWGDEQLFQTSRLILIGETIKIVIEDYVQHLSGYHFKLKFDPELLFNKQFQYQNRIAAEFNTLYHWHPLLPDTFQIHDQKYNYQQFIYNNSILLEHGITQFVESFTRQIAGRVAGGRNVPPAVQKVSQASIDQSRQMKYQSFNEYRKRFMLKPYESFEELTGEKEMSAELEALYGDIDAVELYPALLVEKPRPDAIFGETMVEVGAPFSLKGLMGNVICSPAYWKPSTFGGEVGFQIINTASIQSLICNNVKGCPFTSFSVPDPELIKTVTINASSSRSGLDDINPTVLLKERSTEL
Conditions: literature; cited from earlier work.

Data set [4] concerns the target cyclooxygenase-1 (Homo sapiens, UniProt P23219). The following applies: literature; cited from earlier work.
The target of data set [5] is T4, cyclooxygenase-2 (Homo sapiens, UniProt P35354).
T4 sequence (P35354 18-604): T3 sequence (P35354 18-604)
Conditions: literature; cited from earlier work.

The mark [6] stands for this setting: concentration 1 μM, read-out: % COX-2 inhibition.

Where two headings read alike, the source gives them in different places.

As usually defined, the inhibition is how much of the control response was suppressed. For orientation: melting point means the temperature, or range, at which the solid turns liquid.

Chain of cyclooxygenase-1 (P23219 24-599, species assumed): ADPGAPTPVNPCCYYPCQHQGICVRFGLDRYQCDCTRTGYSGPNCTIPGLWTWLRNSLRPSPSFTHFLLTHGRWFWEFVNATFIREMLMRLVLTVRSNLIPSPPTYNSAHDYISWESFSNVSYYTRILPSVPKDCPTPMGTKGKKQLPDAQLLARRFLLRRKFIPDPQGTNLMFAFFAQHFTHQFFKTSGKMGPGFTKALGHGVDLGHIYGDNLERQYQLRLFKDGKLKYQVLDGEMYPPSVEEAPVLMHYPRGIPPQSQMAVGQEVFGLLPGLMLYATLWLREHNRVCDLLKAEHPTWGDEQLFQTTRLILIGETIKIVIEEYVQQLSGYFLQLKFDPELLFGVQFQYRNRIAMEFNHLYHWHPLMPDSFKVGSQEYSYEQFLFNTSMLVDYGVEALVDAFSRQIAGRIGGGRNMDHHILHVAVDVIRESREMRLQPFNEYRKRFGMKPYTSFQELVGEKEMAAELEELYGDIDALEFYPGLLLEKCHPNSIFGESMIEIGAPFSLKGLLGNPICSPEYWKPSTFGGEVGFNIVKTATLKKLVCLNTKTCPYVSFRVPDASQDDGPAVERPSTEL

The compound `Cc1nc(-c2ccc(S(C)(=O)=O)cc2)n(-c2ccc(Cl)cc2)n1` [Example 3, 1-(4-chloro-phenyl)-3-methyl-5-(4-methylsulfonyl-phenyl)-1H-1,2,4-triazole] returned a melting point of 186 °C. In data set [1] (concentration 1 μM), the “inhibition of COX-1 (in words)” value is given as “did not show any significant inhibition of COX-1” and the “% COX-1 inhibition” value was −2 ± 5.7%. In data set [2] (concentration 1 μM), the “selective inhibition of COX-2 (in words)” value is listed as “able to inhibit COX-2 selectively”. In data set [2] (setting [6]), the inhibition at 1 µM was found to be 19 ± 2.6%.
In the same order, the values of `COc1ccc(-n2nc(C)nc2-c2ccc(S(C)(=O)=O)cc2)cc1` [Example 10, 1-(4-methoxy-phenyl)-3-methyl-5-(4-methylsulfonyl-phenyl)-1H-1,2,4-triazole] are 128 °C, “did not show any significant inhibition of COX-1”, −4 ± 14.6%, “able to inhibit COX-2 selectively” and 32 ± 4.5%.
For the compound `Cc1nc(-c2ccc(S(C)(=O)=O)cc2)n(-c2ccc(N(C)C)cc2)n1` [Example 15, 1-(4-dimethylamino-phenyl)-3-methyl-5-(4-methylsulfonyl-phenyl)-1H-1,2,4-triazole], the melting point was 200 °C. In data set [1] (concentration 1 μM), the “inhibition of COX-1 (in words)” value is listed as “did not show any significant inhibition of COX-1” and the “% COX-1 inhibition” value is reported as “+2 ± 7.0%”. Further, the “selective inhibition of COX-2 (in words)” value in data set [2] (concentration 1 μM) is “able to inhibit COX-2 selectively”. Besides, in data set [2] (setting [6]), the inhibition at 1 µM was determined as 18 ± 7%.
As to `COc1ccc(-n2nc(C(F)(F)F)nc2-c2ccc(S(C)(=O)=O)cc2)cc1` [Example 17, 1-(4-methoxy-phenyl)-5-(4-methylsulfonyl-phenyl)-3-trifluoromethyl-1H-1,2,4-triazole], the melting point was 156 °C. In data set [1] (concentration 1 μM), the “inhibition of COX-1 (in words)” value is “did not show any significant inhibition of COX-1” and the “% COX-1 inhibition” value was “+8 ± 2.7%”. In data set [2] (concentration 1 μM), the “selective inhibition of COX-2 (in words)” value is “able to inhibit COX-2 selectively”. For the same compound, the inhibition at 1 µM in data set [2] (setting [6]) came to 44 ± 6.8%. Further, the “COX-2 inhibitory potency compared with nimesulide (in words)” value in data set [2] is “even more potent”.
With `CS(=O)(=O)c1ccc(-c2nc(C(F)(F)F)nn2-c2ccc(Br)cc2)cc1` [Example 18, 1-(4-bromo-phenyl)-5-(4-methylsulfonyl-phenyl)-3-trifluoromethyl-1H-1,2,4-triazole], the melting point was 198 °C. Besides, in data set [1] (concentration 1 μM), the “inhibition of COX-1 (in words)” value is on record as “did not show any significant inhibition of COX-1” and the “% COX-1 inhibition” value is −5 ± 12%. Also, the “selective inhibition of COX-2 (in words)” value in data set [2] (concentration 1 μM) is reported as “able to inhibit COX-2 selectively”. The inhibition at 1 µM in data set [2] (setting [6]) is 53%. In data set [2], the “COX-2 inhibitory potency compared with nimesulide (in words)” value is on record as “even more potent”. For the same compound, the “COX-2 potency relative to nimesulide” value in data set [2] (same inhibition at 1 μM vs. 10 μM nimesulide) is “about 10 times”.
As for `CS(=O)(=O)Nc1ccc(-n2nc(C(F)(F)F)nc2-c2ccc(S(C)(=O)=O)cc2)cc1` [Example 25, 1-(4-methylsulfonylamino-phenyl)-5-(4-methylsulfonyl-phenyl)-3-trifluoromethyl-1H-1,2,4-triazole], the melting point is 188 °C. Moreover, in data set [1] (concentration 1 μM), the “inhibition of COX-1 (in words)” value is “did not show any significant inhibition of COX-1” and the “% COX-1 inhibition” value is −5 ± 9%. The “selective inhibition of COX-2 (in words)” value in data set [2] (concentration 1 μM) is on record as “able to inhibit COX-2 selectively”. For the same compound, in data set [2] (setting [6]), the inhibition at 1 µM was 31 ± 10%.
In the case of `COc1ccc(-n2nc(C(F)(F)F)nc2-c2ccc(S(N)(=O)=O)cc2)cc1` [Example 34, 1-(4-methoxy-phenyl)-5-(4-aminosulfonyl-phenyl)-3-trifluoromethyl-1H-1,2,4-triazole], in data set [1] (concentration 1 μM), the “inhibition of COX-1 (in words)” value is “did not show any significant inhibition of COX-1” and the “% COX-1 inhibition” value is listed as −16 ± 10%. In addition, in data set [2] (concentration 1 μM), the “selective inhibition of COX-2 (in words)” value was “able to inhibit COX-2 selectively”. Also, in data set [2] (setting [6]), the inhibition at 1 µM amounted to 78 ± 2%. Moreover, in data set [2], the “COX-2 inhibitory potency compared with nimesulide (in words)” value is on record as “even more potent”.
As for `CS(=O)(=O)Nc1ccc([N+](=O)[O-])cc1Oc1ccccc1` [Nimesulide, reference compound], the “% COX-1 inhibition” value in data set [1] (concentration 0.1 μM) is on record as “+7 ± 6.6%”; in data set [1] (concentration 1 μM) it was “+16 ± 12.2%”; in data set [1] (concentration 10 μM) it was “+13 ± 8.3%”. In addition, the inhibition at 0.1 µM in data set [2] (read-out: % COX-2 inhibition) turned out to be 23 ± 5.4%. Moreover, in data set [2] (read-out: % COX-2 inhibition), the inhibition at 1 µM stood at 30 ± 3.2%. In addition, in data set [2] (read-out: % COX-2 inhibition), the inhibition at 10 µM amounted to 50%.
With `Fc1ccc(-c2nc(C(F)(F)F)nn2-c2ccc(Cl)cc2)cc1` [compound (a)], the “Cox-2 inhibitory activity (in words)” value in data set [3] is “moderate Cox-2 inhibitory activity”.
For the compound `CS(=O)(=O)c1ccc(-c2nc(C#N)nn2-c2ccc(F)cc2)cc1` [compound (b)], the “inhibition of cyclooxygenase-1 (in words)” value in data set [4] is “weak and non selective inhibitors”. In data set [5], the “inhibition of cyclooxygenase-2 (in words)” value was “weak and non selective inhibitors”.

The record behind these values is patent publication US6803380B1, “5-aryl-1h-1,2,4-triazole compounds as inhibitors of cyclooxygenase-2 and pharmaceutical compositions containing them” (Laboratoire Theramex, priority 1999, dated 2004).
